Test results: paper PMC9917213, “New Insights into Bitopic Orthosteric/Allosteric Ligands of Cannabinoid Receptor Type 2” (International Journal of Molecular Sciences, 2023)
Where two headings read alike, the source gives them in different places.

Experiments:
hCB2R [1] = molecular target: T1, hCB2R (Homo sapiens, UniProt P34972); experiment: HitHunter cAMP assay: inhibition of forskolin-stimulated cAMP; type: cell-based; settings: for Emax: read-out: Emax ± SEM
T1 construct: host or cells: CHO-K1 (HitHunter cAMP cell line)
Method: Chinese hamster ovary (CHO)-K1 cells untransfected or stably-expressing human cannabinoid CB2R (hCB2R) were used as previously reported. Cells were maintained at 37 °C, 5% CO2 in F-12/DMEM containing 1 mM L-glutamine, 10% fetal bovine serum (FBS), and 1% Pen/Strep and hygromycin B (300 μg/mL) and G418 (400 μg/mL). HitHunter® (cAMP) CHO-K1 cells stably expressing hCB2R from DiscoveRx (Eurofins, Fremont, CA, USA) were maintained at 37 °C, 5% CO2 in F-12 DMEM containing 10% FBS and 1% Pen/Strep with 800 μg/mL geneticin.
This method was conducted as described previously. The quantification of FSK-stimulated cAMP accumulation was performed using the DiscoveRx HitHunter assay. Twenty thousand cells/well were plated in low-volume 96-well plates and incubated overnight in Opti-MEM containing 1% FBS at 37 °C and 5% CO2. Opti-MEM media was then removed and replaced with cell assay buffer (DiscoveRx), and cells were co-treated at 37 °C with 10 μM FSK and ligands for 90 min. The cAMP antibody solution and cAMP working detection solutions were added to cells (DiscoveRx), and cells were incubated for 60 min at room temperature. cAMP solution A (DiscoveRx) was added, and cells were incubated for an additional 180 min at room temperature before chemiluminescence was measured on a Cytation5 plate reader (top read, gain 200, integration time 10,000 ms).
Post-hoc analyses were performed using Tukey’s (one-way ANOVA) test.

HMC3 cells [2] = experiment: IL-6 release (ELISA) in LPS/TNFα stimulated HMC3 cells; type: cell-based, human
Method: The human microglial clone 3 cell line (HMC3) (ATCC® CRL-3304™) was cultured in high glucose DMEM supplemented with 10% FBS, streptomycin ([…]) and penicillin (100 U/mL) (Sigma-Aldrich, Milan, Italy). LPS (Cat. number L4391) and TNFα (Cat. number H8916) were purchased from Sigma-Aldrich (Milan, Italy).
The pro-inflammatory IL-6 levels were evaluated by a specific ELISA assay (RAB0306, Sigma-Aldrich, Milan, Italy) on collected culture media. Briefly, HMC3 cells were exposed to pretreatment with a test compound for 30 min followed by LPS (10 μg/mL)/TNFα (50 ng/mL) for 24 h, used as pro-inflammatory stimuli. Vehicle-treated cells were used as control. In competition experiments, the CB2R antagonist (SR144528, 1 μM; Cayman Chemical Company, Ann Arbor, MA, USA) or the CB2R positive allosteric modulator (EC21a, 10 μM) was administered 15 min before agonist administration.

hCB1R = molecular target: T2, hCB1R (Homo sapiens, UniProt P21554); experiment: [3H]CP55,940 radioligand displacement assay, hCB1R; type: binding; settings: CHO hCB1R membranes, 1 nM [3H]CP55,940, 0.10 nM-10 μM compound, 2 h
T2 construct: expressed in transfected cells; host or cells: CHO-K1 cell membranes
Method: (§1) We assessed ligand affinity for JR-22a at hCB1R and hCB2R using a […]
(§2) either receptor. […] At hCB2R, JR-22a
(§3) Figure S1. […] Membranes from CHO-K1 cells stably-expressing hCB1R (a) or […]
(§4) Data were fitted to a non-linear regression (three-parameter model, GraphPad v. 9.0). Data are mean ± S.E.M. of 3 independent experiments performed in triplicate.
(§5) Radioligand Displacement Assay.
(§6) Cells were scraped from flasks, centrifuged, and frozen at −80 °C until required.
(§7) This method was conducted as described previously. Cells were thawed, diluted in Tris buffer (50 mM Tris−HCl and 50 mM Tris−base), and homogenized in a 1 mL handheld homogenizer. hCB1R and hCB2R CHO−K1 cell membranes were collected by cavitation in a pressure cell and sedimented by ultracentrifugation. Pellets were resuspended in TME buffer (50 mM Tris−HCl, 5 mM MgCl2, 1 mM EDTA, pH 7.4), and protein concentration was measured via the Bradford method (Bio-Rad Laboratories, Mississauga, ON). Competition binding experiments were conducted with 1 nM [3H]CP55, 940 and Tris binding buffer (50 mM Tris−HCl, 50 mM Tris−base, 0.1% BSA, pH 7.4, 2 mL). Radioligand binding began with the addition of CHO−K1 cell membranes (50 μg protein per sample). […] Liquid scintillation spectrometry was used to quantify radioactivity. For competition binding experiments, specific binding was equal to the difference in radioactivity with or without 1 μM […]

[3] = Plasma stability (LC-HRMS), rat plasma; type: in vitro ADME; settings: 20 µM, 37 °C, up to 360 min
Method: (§8) Plasma stability was evaluated at the time points 0, 10, 30, 60, 120, 240, and 360 min over two species, rodent (rat) and human, and assessed by LC-HRMS. Results are expressed as a relative percentage (mean ± SD) with respect to the amount at t = 0 min. JR22a is stable both in rat and human plasma up to the last time point tested (360 min), as can be observed in Figure 6.
(§9) Stock solutions of 1 mg/mL JR22a and procainamide (used as internal standard, IS) were prepared in CH3OH and kept in ice during sample preparation and stored at −20 °C if not in use. The stability was tested in rat and human plasma obtained from Sigma-Aldrich (Milan, Italy).
(§10) JR22a (20 µM) was incubated with plasma at 37 °C under gentle shaking up to […] in triplicates. An aliquot of 20 µL was withdrawn from the mixture and diluted to a final volume of 200 µL of a 2 % TCA solution containing procainamide 1 µM at each time point: 10, 30, 60, 120, 240, and 360 min. Samples were kept in ice for 20 min and then centrifugated at 14,000 rpm for 10 min at 4 °C. The supernatant was diluted 1:1 with water and transferred in vials for the analysis. […]

[4] = Plasma stability (LC-HRMS), human plasma; type: in vitro ADME; settings: 20 µM, 37 °C, up to 360 min
Method: as §8, §9, §10

HMC3 cells [5] = experiment: MTT cell viability assay; type: cell-based, human; settings: 24 h
Method: Cell viability was evaluated by 3-(4,5-dimethylthiazol-2-yl)-2,5-diphenyltetrazolium bromide (MTT) reagent. Briefly, HMC3 cells were exposed to increasing concentrations of the compound, ranging from 0.1 to 25 µM. After 24 h, 0.5 mg/mL MTT reagent was added to each well, and the cells were incubated for 3 h at 37 °C. Then, 25 µL of the medium was removed from the wells, and 50 µL of DMSO was added. After 10 min incubation at 37 °C, absorbance at OD540 nm was determined with an automated microplate reader (BIO-TEK, Winooski, VT, USA). The percentage of cell viability was calculated as a percentage of vehicle-treated cells used as control.

hCB2R [6] = molecular target: T1, hCB2R; experiment: [3H]CP55,940 radioligand displacement assay, hCB2R; type: binding
Method: as §1, §2, §3, §4, §5, §6, §7

[7] = pEC50 ± SEM, compound alone, CHO hCB2R, 10 μM FSK, 90 min

T1 sequence (P34972 whole entry): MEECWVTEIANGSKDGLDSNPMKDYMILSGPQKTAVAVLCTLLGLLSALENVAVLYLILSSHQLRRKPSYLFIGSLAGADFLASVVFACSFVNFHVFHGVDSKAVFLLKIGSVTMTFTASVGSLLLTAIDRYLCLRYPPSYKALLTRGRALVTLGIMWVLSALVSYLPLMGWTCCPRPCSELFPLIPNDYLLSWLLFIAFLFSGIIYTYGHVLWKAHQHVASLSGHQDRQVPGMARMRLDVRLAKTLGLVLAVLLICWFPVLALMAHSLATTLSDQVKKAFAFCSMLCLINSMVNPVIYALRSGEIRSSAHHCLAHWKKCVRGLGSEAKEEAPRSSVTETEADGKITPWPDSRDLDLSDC
T2 sequence (P21554 whole entry): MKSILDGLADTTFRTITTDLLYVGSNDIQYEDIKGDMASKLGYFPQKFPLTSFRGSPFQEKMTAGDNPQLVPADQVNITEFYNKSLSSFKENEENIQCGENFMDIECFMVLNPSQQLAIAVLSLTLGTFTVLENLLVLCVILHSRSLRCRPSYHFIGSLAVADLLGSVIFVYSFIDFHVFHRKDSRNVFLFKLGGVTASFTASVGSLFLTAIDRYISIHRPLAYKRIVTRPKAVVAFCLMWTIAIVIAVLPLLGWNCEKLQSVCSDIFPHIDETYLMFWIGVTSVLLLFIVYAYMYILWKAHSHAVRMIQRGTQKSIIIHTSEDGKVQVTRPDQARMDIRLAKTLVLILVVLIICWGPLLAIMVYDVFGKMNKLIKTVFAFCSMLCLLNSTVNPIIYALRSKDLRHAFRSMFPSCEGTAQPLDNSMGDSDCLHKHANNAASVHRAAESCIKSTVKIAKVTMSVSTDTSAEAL

Cc1c(Br)cn(Cc2ccc(F)cc2)c(=O)c1NC(=O)C1CCCCCC1 [EC21a, reference compound]
EC50 (hCB2R [1]): 30 nM | Activity alone in cAMP inhibition (hCB2R [1]; EC21a alone, Emax not different from 0): inactive | Emax (hCB2R [1]): -14 ± 7%

Cc1c(Br)cn(CCCc2cn(CCCCC(=O)NC3CCC(NC(=O)c4cc5cccnc5n(Cc5ccc(F)cc5)c4=O)CC3)nn2)c(=O)c1NC(=O)C1CCCCCC1 (stereo not drawn) [JR14a]
pEC50 ± SEM (hCB2R [1]; compound alone, CHO hCB2R, 10 μM FSK, 90 min): 7.6 ± 0.9 | EC50 (hCB2R [1]; compound alone, CHO hCB2R, 10 μM FSK, 90 min, read-out: EC50 (in brackets after pEC50) (converted)): 24 nM | Emax (hCB2R [1]): 29 ± 5%

Cc1c(Br)cn(CCCc2cn(CCCCCn3c(=O)c(C(=O)NC4CCC(C)CC4)cc4cccnc43)nn2)c(=O)c1NC(=O)C1CCCCCC1 (stereo not drawn) [JR22a]
EC50 (hCB2R [1]; EC50 (in brackets after pEC50), compound alone, CHO hCB2R, 10 μM FSK, 90 min): 698 nM | EC50 (hCB2R [1]; [7]): 794 nM | Emax (hCB2R [1]): 53 ± 6% | IL-6 levels in the cultured medium (HMC3 cells [2]; 1 and 10 μM, 30 min pre-treatment, then LPS (10 μg/mL)/TNFα (50 ng/mL) 24 h): significant dose-dependent decrease | Effect of EC21a co-treatment on ability of JR22a to prevent IL-6 release (HMC3 cells [2]; EC21a 10 μM, equimolar with JR22a, LPS/TNFα 24 h): did not interfere | Effect of SR144528 pre-administration on the JR22a effect on IL-6 release (HMC3 cells [2]; SR144528 1 μM, 15 min before JR22a, LPS/TNFα 24 h): almost completely abolished | Displacement of [3H]CP55,940 (hCB1R): not able to displace | Plasma stability [3]: stable | Plasma stability [4]: stable | Cell viability (MTT) (HMC3 cells [5]; 25 μM): significant inhibition of cell viability | Cytotoxic effect (cell viability, MTT) (HMC3 cells [5]; 1 and 10 μM): no cytotoxic effect | IC50 (hCB2R [6]): 95 nM | Ki (hCB2R [6]): 95 nM

Cc1c(Br)cn(CCCCCCCn2c(=O)c(C(=O)NC3CCC(C)CC3)cc3cccnc32)c(=O)c1NC(=O)C1CCCCCC1 (stereo not drawn) [JR64a]
EC50 (hCB2R [1]; [7]): 2.51 nM | Emax (hCB2R [1]): 19 ± 6%
